Experimental data as given in BigSolDB 2.1.

O=S(=O)(c1ccccc1)c1ccc(Cl)cc1
solubility (mole fraction)
Details | 278.15 K | 283.15 K | 288.15 K | 293.15 K | 298.15 K | 303.15 K | 308.15 K | 313.15 K | 318.15 K | 323.15 K
in ethanol | 0.00091 | 0.00105 | 0.00121 | 0.00142 | 0.00166 | 0.00189 | 0.00221 | 0.00261 | 0.00301 | 0.00358
in isopropanol | 0.00198 | 0.00236 | 0.00283 | 0.00338 | 0.00395 | 0.00468 | 0.00547 | 0.00629 | 0.00722 | 0.00838
in methanol | 0.000276 | 0.000332 | 0.000401 | 0.00049 | 0.000572 | 0.000668 | 0.000781 | 0.0009 | 0.00105 | 0.00125
in n-propanol | 0.00351 | 0.00411 | 0.00479 | 0.00555 | 0.00645 | 0.00754 | 0.00885 | 0.0102 | 0.0116 | 0.0137
in water | 2.88e-06 | 3.77e-06 | 4.7e-06 | 5.95e-06 | 7.38e-06 | 9.03e-06 | 1.1e-05 | 1.34e-05 | 1.61e-05 | 1.94e-05
